The nature of data set [1]: Stability at 40° C./75% RH. Format: physicochemical. The settings on record: 40° C./75% RH for 4 weeks. As for the experimental part:
In comparison with the form F disclosed in U.S. Pat. No. 8,093,293, Form 3 and Form 4 in the present disclosure needs less process time to be prepared and is stable even at 40° C./75% RH for 4 weeks.

Data set [2] in a line: Dynamic Vapor Sorption (DVS) analysis of moisture uptake and release. The settings on record: for hygroscopicity (conclusion from DVS): cycling between 0% and 90% RH. The class given is physicochemical. As for the experimental part:
Dynamic Vapor Sorption (DVS)
The sample was placed into the DVS sample pan and dried under a stream of dry nitrogen at 25° C. (0% RH). The moisture was gradually introduced into the system with a 10% RH increment up to 90% RH and the humidity was then decreased in a similar trend for desorption phase. The sorption and desorption data were collected with equilibration set to dm/dt 0.004%/min for 5 min/step. The minimum and maximum time for each step were set to 10 and 360 min. Two sorption/desorption cycles were performed.

Experimental findings from patent US9765026B2, “Forms of apremilast and the process of making the same” (ScinoPharm Taiwan, Ltd., priority 2015, dated 2017) are described below.

Structures are written as SMILES.

As for `CCOc1cc([C@@H](CS(C)(=O)=O)N2C(=O)c3cccc(NC(C)=O)c3C2=O)ccc1OC` [Form 3, apremilast], the stability on storage entry in data set [1] is listed as “stable”.

For the compound `CCOc1cc([C@@H](CS(C)(=O)=O)N2C(=O)c3cccc(NC(C)=O)c3C2=O)ccc1OC` [Form 4, apremilast], the weight gained result in data set [2] (at 10% RH (FIG. 12)) is “about 3.3%”. In addition, the “hygroscopicity (conclusion from DVS)” value in data set [2] was “non-hygroscopic”. The “change in sample weight” value in data set [2] (humidity increased from 10% to 90% RH (FIG. 12)) is on record as “no significant change”. Besides, the stability on storage entry in data set [1] is reported as “stable”.

In data set [2] (RH 90% (FIG. 5B)), `CCOc1cc([C@@H](CS(C)(=O)=O)N2C(=O)c3cccc(NC(C)=O)c3C2=O)ccc1OC` [Form II, apremilast] registered a water content of 4.5%. Further, in data set [2], the “hygroscopicity (conclusion from DVS)” value is “hygroscopic”.

In the case of `CCOc1cc([C@@H](CS(C)(=O)=O)N2C(=O)c3cccc(NC(C)=O)c3C2=O)ccc1OC` [amorphous apremilast, apremilast], in data set [2], the “hygroscopicity (conclusion from DVS)” value was “hygroscopic”. For the same compound, the maximum moisture uptake result in data set [2] (cycling between 0% and 90% RH (FIG. 15)) is given as “about 2.5 % of the total mass of the sample”.
